Reference: publication PMC9077246, “Novel spirocyclic tranylcypromine derivatives as lysine-specific demethylase 1 (LSD1) inhibitors” (RSC Advances, 2018)
Structures can show the parent of a compound that is named as a salt.

Legend:
MAO-A = biological target: T1, MAO-A (Homo sapiens, UniProt P21397); assay: biochemical; conditions: MAO-A, IC50, Table 1; mean ± SEM, eight-point experiments, three independent experiments
T1 sequence (P21397 1-527): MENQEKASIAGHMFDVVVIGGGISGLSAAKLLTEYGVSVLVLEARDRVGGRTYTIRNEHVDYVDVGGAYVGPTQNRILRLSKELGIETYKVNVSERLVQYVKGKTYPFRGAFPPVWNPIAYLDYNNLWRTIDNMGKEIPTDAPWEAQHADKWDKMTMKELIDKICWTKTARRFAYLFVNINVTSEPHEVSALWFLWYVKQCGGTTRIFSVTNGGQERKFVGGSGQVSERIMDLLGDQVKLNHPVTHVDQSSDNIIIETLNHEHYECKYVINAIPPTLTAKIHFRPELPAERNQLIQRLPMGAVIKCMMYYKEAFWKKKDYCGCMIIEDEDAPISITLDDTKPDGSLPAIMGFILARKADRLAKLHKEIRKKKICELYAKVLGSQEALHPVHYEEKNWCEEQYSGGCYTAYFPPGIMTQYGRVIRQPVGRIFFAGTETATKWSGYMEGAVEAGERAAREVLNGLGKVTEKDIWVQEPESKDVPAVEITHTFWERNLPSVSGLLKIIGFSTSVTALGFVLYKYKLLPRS
Protocol: (§1) MAO-A and MAO-B enzymes were purchased from Sigma-Aldrich and the inhibition assay was tested with Promega MAO-Glo™ Assay kit according to the manufacturer's protocol. The luminescent signals were detected using Envision (PerkinElmer). The test was carried out in triplicate. And the IC50 data was calculated using the software GraphPad Prism 5, and chosen the equation “sigmoidal dose–response (variable slope)” for curve fitting.

MAO-B = biological target: T2, MAO-B (Homo sapiens, UniProt P27338); assay: biochemical; conditions: MAO-B, IC50, Table 1; mean ± SEM, eight-point experiments, three independent experiments
T2 sequence (P27338 1-520): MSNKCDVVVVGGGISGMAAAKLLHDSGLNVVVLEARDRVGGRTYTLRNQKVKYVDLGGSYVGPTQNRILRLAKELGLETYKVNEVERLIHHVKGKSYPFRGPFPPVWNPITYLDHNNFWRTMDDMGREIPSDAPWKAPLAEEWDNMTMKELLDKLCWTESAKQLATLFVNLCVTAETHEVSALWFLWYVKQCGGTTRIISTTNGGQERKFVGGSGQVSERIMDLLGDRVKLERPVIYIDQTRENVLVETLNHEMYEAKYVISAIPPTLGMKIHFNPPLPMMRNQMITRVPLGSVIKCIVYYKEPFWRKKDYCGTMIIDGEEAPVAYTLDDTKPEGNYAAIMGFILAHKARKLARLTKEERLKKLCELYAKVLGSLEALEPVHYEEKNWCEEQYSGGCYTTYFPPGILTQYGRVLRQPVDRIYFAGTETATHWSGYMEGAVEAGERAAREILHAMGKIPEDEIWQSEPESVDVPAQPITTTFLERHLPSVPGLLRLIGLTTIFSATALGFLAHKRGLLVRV
Protocol: as §1

[1] = biological target: T3, Recombinant human LSD1 (172–852 aa) (Homo sapiens, UniProt O60341); assay: biochemical
Protocol: (§2) LSD1 or LSD2 enzyme inhibition assay was performed with Lance Ultra LSD1 Histone H3-Lysine 4 Demethylase Assay kit (Perkin Elmer) according to the manufacturer's protocol. […] The test was carried out in triplicate. And the IC50 data was calculated using the software GraphPad Prism 5, and chosen the equation “sigmoidal dose–response (variable slope)” for curve fitting.

[2] = biological target: T3, Recombinant human LSD1 (172–852 aa); conditions: for LSD1 IC50 level in words: potency range in words; for fold reduction in LSD1 inhibitory potency vs 28a, 28b: 29a, 29b vs 28a; for fold more potent at LSD1 than 8a and 8b, respectively: 21a vs 8a, 21b vs 8b; for fold reduction in LSD1 inhibitory potency vs 23a, 23b: 24a, 24b vs 23a
Protocol: as §2

SMILES	IC50 (MAO-A) [µM]	IC50 (MAO-B) [µM]	IC50 [1] [µM]	other results
COc1ccc(CN[C@H]2CC23CCc2ccccc23)c(Cl)c1OC (stereo in doubt) [Compound 20b, (2S)-N-(2-Chloro-3,4-dimethoxybenzyl)-2′,3′-dihydrospiro[cyclopropane-1,1′-inden]-2-amine]	5 ± 1.8	7 ± 0.7	–	–
N[C@H]1CC12CCc1cc(-c3ccccc3)ccc12 (stereo in doubt) [Compound 28b, (2S)-5′-Phenyl-2′,3′-dihydrospiro[cyclopropane-1,1′-inden]-2-amine hydrochloride]	–	–	2.7 ± 0.2	–
COc1ccc(CN[C@@H]2CC23CCc2ccccc23)c(Cl)c1OC (stereo in doubt) [Compound 20a, (2R)-N-(2-Chloro-3,4-dimethoxybenzyl)-2′,3′-dihydrospiro[cyclopropane-1,1′-inden]-2-amine]	1.4 ± 0.1	20 ± 1	–	–
COc1ccc(F)cc1CN[C@H]1CC12CCc1cc(-c3ccccc3)ccc12 (stereo in doubt) [Compound 30b, (2S)-N-(5-Fluoro-2-methoxybenzyl)-5′-phenyl-2′,3′-dihydrospiro[cyclopropane-1,1′-inden]-2-amine]	–	–	4.4 ± 0.3	LSD1 IC50 level in words [2]: single digit micromolar range
Cl.N[C@@H]1CC12CCc1cc(-c3ccc(F)cc3)ccc12 (stereo in doubt) [Compound 29a, (2R)-5′-(4-Fluorophenyl)-2′,3′-dihydrospiro[cyclopropane-1,1′-inden]-2-amine hydrochloride]	–	–	0.3 ± 0.01	fold reduction in LSD1 inhibitory potency vs 28a, 28b [2]: approximately 3 fold
COc1ccccc1CN[C@@H]1CC12CCc1ccccc12 (stereo in doubt) [Compound 14a, (2R)-N-(2-Methoxybenzyl)-2′,3′-dihydrospiro[cyclopropane-1,1′-inden]-2-amine]	5.9 ± 1.1	12 ± 1	–	–
c1cncc(CN[C@H]2CC23CCc2ccccc23)c1 (mixture of isomers) [Compound 21b, (2S)-N-(Pyridin-3-ylmethyl)-2′,3′-dihydrospiro[cyclopropane-1,1′-inden]-2-amine]	6 ± 1.1	28 ± 6	0.02 ± 0.003	fold more potent at LSD1 than 8a and 8b, respectively [2]: 39 fold
Cl.N[C@H]1CC12CCc1cc(-c3ccc(F)cc3)ccc12 (stereo in doubt) [Compound 29b, (2S)-5′-(4-Fluorophenyl)-2′,3′-dihydrospiro[cyclopropane-1,1′-inden]-2-amine hydrochloride]	–	–	6 ± 0.8	fold reduction in LSD1 inhibitory potency vs 28a, 28b [2]: approximately 3 fold
c1cncc(CN[C@@H]2CC23CCc2ccccc23)c1 (mixture of isomers) [Compound 21a, (2R)-N-(Pyridin-3-ylmethyl)-2′,3′-dihydrospiro[cyclopropane-1,1′-inden]-2-amine]	10.8 ± 1.1	15 ± 1	0.017 ± 0.003	fold more potent at LSD1 than 8a and 8b, respectively [2]: 10 fold
COc1ccc(CN[C@@H]2CC23CCc2cc(-c4ccccc4)ccc23)c(Cl)c1OC (stereo in doubt) [Compound 31a, (2R)-N-(2-Chloro-3,4-dimethoxybenzyl)-5′-phenyl-2′,3′-dihydrospiro[cyclopropane-1,1′-inden]-2-amine]	–	–	8.9 ± 1.2	LSD1 IC50 level in words [2]: single digit micromolar range
Fc1cccnc1CN[C@H]1CC12CCc1ccccc12 (stereo in doubt) [Compound 24b, (2S)-N-((3-Fluoropyridin-2-yl)methyl)-2′,3′-dihydrospiro[cyclopropane-1,1′-inden]-2-amine]	–	–	0.47 ± 0.02	fold reduction in LSD1 inhibitory potency vs 23a, 23b [2]: ≥ 4 fold
COc1ccc(CNC2CC23CCc2ccccc23)cc1OC [Compound 19a, (2R)-N-(3,4-Fimethoxybenzyl)-2′,3′-dihydrospiro[cyclopropane-1,1′-inden]-2-amine]	11.7 ± 2.4	15 ± 2	–	–
COc1ccc(CNC2CC23CCc2ccccc23)cc1OC [Compound 19b, (2S)-N-(3,4-Fimethoxybenzyl)-2′,3′-dihydrospiro[cyclopropane-1,1′-inden]-2-amine]	3.1 ± 0.2	27 ± 4	–	–
COc1ncccc1CN[C@H]1CC12CCc1ccccc12 (stereo in doubt) [Compound 22b, (2S)-N-((2-Methoxypyridin-3-yl)methyl)-2′,3′-dihydrospiro[cyclopropane-1,1′-inden]-2-amine]	> 100	68 ± 8	0.01 ± 0.005	–
O=C(CN[C@@H]1CC12CCc1ccccc12)N1CCOCC1 (stereo in doubt) [Compound 25a, 2-(((2R)-2′,3′-Dihydrospiro[cyclopropane-1,1′-inden]-2-yl)amino)-1-morpholinoethan-1-one hydrochloride]	–	–	1.4 ± 0.1	–
COc1ccccc1CN[C@H]1CC12CCc1ccccc12 (stereo in doubt) [Compound 14b, (2S)-N-(2-Methoxybenzyl)-2′,3′-dihydrospiro[cyclopropane-1,1′-inden]-2-amine]	1.7 ± 0.3	70 ± 35	–	–
COc1ccc(Br)cc1CN[C@H]1CC12CCc1ccccc12 (stereo in doubt) [Compound 16b, (2S)-N-(5-Bromo-2-methoxybenzyl)-2′,3′-dihydrospiro[cyclopropane-1,1′-inden]-2-amine]	0.39 ± 0.19	7.7 ± 3.8	–	–
O=C(CN[C@H]1CC12CCc1ccccc12)N1CCOCC1 (stereo in doubt) [Compound 25b, 2-(((2S)-2′,3′-Dihydrospiro[cyclopropane-1,1′-inden]-2-yl)amino)-1-morpholinoethan-1-one hydrochloride]	–	–	22 ± 4	–
Fc1ccccc1CN[C@@H]1CC12CCc1ccccc12 (mixture of isomers) [Compound 15a, (2R)-N-(2-Fluorobenzyl)-2′,3′-dihydrospiro[cyclopropane-1,1′-inden]-2-amine]	4.8 ± 0.5	9.8 ± 2.3	–	–
c1ccc(CN[C@@H]2CC23CCc2ccccc23)cc1 (mixture of isomers) [Compound 13a, (2R)-N-Benzyl-2′,3′-dihydrospiro[cyclopropane-1,1′-inden]-2-amine]	–	–	3.3 ± 0.6	–
Fc1ccccc1CN[C@H]1CC12CCc1ccccc12 (stereo in doubt) [Compound 15b, (2S)-N-(2-Fluorobenzyl)-2′,3′-dihydrospiro[cyclopropane-1,1′-inden]-2-amine]	2.5 ± 0.1	32 ± 3	–	–
COc1ncccc1CN[C@@H]1CC12CCc1ccccc12 (stereo in doubt) [Compound 22a, (2R)-N-((2-Methoxypyridin-3-yl)methyl)-2′,3′-dihydrospiro[cyclopropane-1,1′-inden]-2-amine]	> 100	47 ± 5	0.032 ± 0.006	fold less potent at LSD1 than the cis-isomer ([2]; 22a vs 22b): 3 fold
NC1CCC(N[C@@H]2C[C@H]2c2ccccc2)CC1 (stereo partly drawn) [Compound 6, N1-[(1R, 2S)-2-phenylcyclopropyl]cyclohexane-1,4-diamine dihydrochloride, reference compound]	> 100	–	–	–
Fc1cccnc1CN[C@@H]1CC12CCc1ccccc12 (stereo in doubt) [Compound 24a, (2R)-N-((3-Fluoropyridin-2-yl)methyl)-2′,3′-dihydrospiro[cyclopropane-1,1′-inden]-2-amine]	–	–	0.25 ± 0.01	fold reduction in LSD1 inhibitory potency vs 23a, 23b [2]: ≥ 4 fold
COc1ccc(Br)cc1CN[C@@H]1CC12CCc1ccccc12 (stereo in doubt) [Compound 16a, (2R)-N-(5-Bromo-2-methoxybenzyl)-2′,3′-dihydrospiro[cyclopropane-1,1′-inden]-2-amine]	3.7 ± 0.8	1.2 ± 0.2	–	–
COc1ccc(F)cc1CN[C@@H]1CC12CCc1cc(-c3ccccc3)ccc12 (stereo in doubt) [Compound 30a, (2R)-N-(5-Fluoro-2-methoxybenzyl)-5′-phenyl-2′,3′-dihydrospiro[cyclopropane-1,1′-inden]-2-amine]	–	–	1.7 ± 0.1	LSD1 IC50 level in words [2]: single digit micromolar range
COc1ccc(F)cc1CN[C@@H]1CC12CCc1cc(-c3ccc(F)cc3)ccc12 (stereo in doubt) [Compound 32a, (2R)-N-(5-Fluoro-2-methoxybenzyl)-5′-(4-fluorophenyl)-2′,3′-dihydrospiro[cyclopropane-1,1′-inden]-2-amine]	–	–	2.6 ± 0.5	LSD1 IC50 level in words [2]: single digit micromolar range
